# Test system: HBV viral production from HepAD38 cells
# Experiment: Activity of test compounds on viral production from HepAD38 cells (viral load by qPCR of HBV core sequence in supernatant)
# Type: cell-based
# Details: Hepatitis B virus, 120 h, 5 days incubation, HBV DNA in supernatant by qPCR, top concentration 10 μM, read-out: Viral Load EC50 Activity range
# In short: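 HepAD38 cells, 50,000/well in tetracycline-free 2% FBS medium, treated 5 days at 37° C. with compound from 10 μM top concentration. HBV DNA in supernatant quantified by TaqMan qPCR of core sequence against DNA standards, relative to DMSO wells; CellTiter-Glo viability read in parallel. EC50/CC50 from four-parameter logistic fit.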
row,Compound,EC50 [nM]
1,"CN1C(C(=O)Nc2ccc(F)c(Cl)c2)CC(c2ccc(-c3cn(C)cn3)s2)NS1(=O)=O (racemic) [HBV-CSU-266, Cis-N-(3-Chloro-4-fluorophenyl)-2-methyl-5-(5-(1-methyl-1H-imidazol-4-yl)thiophen-2-yl)-1,2,6-thiadiazinane-3-carboxamide 1,1-dioxide]",< 1000
2,"CN(C)CCOc1ccc(C2CC(C(=O)Nc3ccc(F)c(Cl)c3)N(C)S(=O)(=O)N2)s1 (racemic) [HBV-CSU-188, Cis-N-(3-chloro-4-fluorophenyl)-5-(5-(2-(dimethylamino)ethoxy)thiophen-2-yl)-2-methyl-1,2,6-thiadiazinane-3-carboxamide 1,1-dioxide]",< 1000
3,"C=CCN1C(C(=O)Nc2ccc(F)c(Cl)c2)CC(c2cccs2)NS1(=O)=O (stereo not drawn) [HBV-CSU-040, Cis-2-Allyl-N-(3-chloro-4-fluorophenyl)-5-(thiophen-2-yl)-1,2,6-thiadiazinane-3-carboxamide 1,1-dioxide]",< 1000
4,"CN1[C@H](C(=O)Nc2ccc(F)c(Cl)c2)C[C@H](c2ccc(-c3ncn(C)n3)s2)NS1(=O)=O [HBV-CSU-322-ISO-I, Cis-N-(3-Chloro-4-fluorophenyl)-2-methyl-5-(5-(1-methyl-1H-1,2,4-triazol-3-yl)thiophen-2-yl)-1,2,6-thiadiazinane-3-carboxamide 1,1-dioxide]",< 1000
5,"CN1[C@H](C(=O)Nc2ccc(F)c(Cl)c2)C[C@H](c2ncc(-c3ccc(Br)c(F)c3)s2)NS1(=O)=O [HBV-CSU-173-ISO-I, Cis-5-(5-(4-Bromo-3-fluorophenyl)thiazol-2-yl)-N-(3-chloro-4-fluorophenyl)-2-methyl-1,2,6-thiadiazinane-3-carboxamide 1,1-dioxide]",< 1000
6,"COC(C)(C)CCN1[C@H](C(=O)Nc2ccc(F)c(Cl)c2)C[C@H](c2nccs2)NS1(=O)=O [HBV-CSU-083-ISO-II, Cis-N-(3-Chloro-4-fluorophenyl)-2-(3-methoxy-3-methylbutyl)-5-(thiazol-2-yl)-1,2,6-thiadiazinane-3-carboxamide 1,1-dioxide]",> 5000
7,"CN1[C@@H](C(=O)Nc2ccc(F)c(Cl)c2)C[C@@H](c2ncc(-c3cccs3)s2)NS1(=O)=O [HBV-CSU-178-ISO-II, Cis-N-(3-Chloro-4-fluorophenyl)-2-methyl-5-(5-(thiophen-2-yl)thiazol-2-yl)-1,2,6-thiadiazinane-3-carboxamide 1,1-dioxide]",1000 to 5000
8,"CN1[C@H](C(=O)Nc2ccc(F)c(Cl)c2)C[C@H](c2ccc(-c3cnco3)s2)NS1(=O)=O [HBV-CSU-269-ISO-I, Cis-N-(3-Chloro-4-fluorophenyl)-2-methyl-5-(5-(oxazol-5-yl)thiophen-2-yl)-1,2,6-thiadiazinane-3-carboxamide 1,1-dioxide]",< 1000
9,"CN1[C@H](C(=O)Nc2ccc(F)c(Cl)c2)C[C@H](C2CCCC2)NS1(=O)=O [HBV-CSU-222-ISO-I, Cis-N-(3-chloro-4-fluorophenyl)-5-cyclopentyl-2-methyl-1,2,6-thiadiazinane-3-carboxamide 1,1-dioxide]",< 1000
10,"Cc1nn(C)cc1-c1csc([C@H]2C[C@@H](C(=O)Nc3ccc(F)c(Cl)c3)N(C)S(=O)(=O)N2)c1 [HBV-CSU-316-ISO-I, Cis-N-(3-chloro-4-fluorophenyl)-5-(4-(1,3-dimethyl-1H-pyrazol-4-yl)thiophen-2-yl)-2-methyl-1,2,6-thiadiazinane-3-carboxamide 1,1-dioxide]",< 1000
11,"CN1[C@H](C(=O)Nc2ccc(F)c(Cl)c2)C[C@H](c2cc(-c3cnn(C)c3)cs2)NS1(=O)=O [HBV-CSU-169-ISO-I, Cis-N-(3-chloro-4-fluorophenyl)-2-methyl-5-(4-(1-methyl-1H-pyrazol-4-yl)thiophen-2-yl)-1,2,6-thiadiazinane-3-carboxamide 1,1-dioxide]",< 1000
12,"[2H]C1[C@]([2H])(c2ncc(-c3cn(C)cn3)s2)NS(=O)(=O)N(C([2H])([2H])[2H])[C@]1([2H])C(=O)Nc1ccc(F)c(Cl)c1 (stereo in doubt) [HBV-CSU-340-ISO-I, Cis-N-(3-Chloro-4-fluorophenyl)-2-(methyl-d3)-5-(5-(1-methyl-1H-imidazol-4-yl)thiazol-2-yl)-1,2,6-thiadiazinane-3,4,5-d3-3-carboxamide 1,1-dioxide]",< 1000
13,"[2H]C1[C@]([2H])(C(=O)Nc2ccc(F)c(Cl)c2)N(C([2H])([2H])[2H])S(=O)(=O)N[C@]1([2H])c1ccc(-c2cn(C([2H])([2H])[2H])cn2)s1 (stereo in doubt) [HBV-CSU-378-ISO-II, Cis-N-(3-chloro-4-fluorophenyl)-2-(methyl-d3)-5-(5-(1-(methyl-d3)-1H-imidazol-4-yl)thiophen-2-yl)-1,2,6-thiadiazinane-3,4,5-d3-3-carboxamide 1,1-dioxide]",1000 to 5000
14,"O=C(Nc1ccc(F)c(Cl)c1)[C@@H]1C[C@H](c2nccs2)NS(=O)(=O)N1CCc1c[nH]nn1 [HBV-CSU-092-ISO-I, Cis-2-(2-(1H-1,2,3-Triazol-4-yl)ethyl)-N-(3-chloro-4-fluorophenyl)-5-(thiazol-2-yl)-1,2,6-thiadiazinane-3-carboxamide 1,1-dioxide]",< 1000
15,"CN1C(C(=O)Nc2ccc(F)c(Cl)c2)CC(c2cc(-c3ccccn3)cs2)NS1(=O)=O (racemic) [HBV-CSU-168, Cis-N-(3-chloro-4-fluorophenyl)-2-methyl-5-(4-(pyridin-2-yl)thiophen-2-yl)-1,2,6-thiadiazinane-3-carboxamide 1,1-dioxide]",< 1000
16,CN1[C@H](C(=O)Nc2ccc(F)c(Cl)c2)C[C@H](c2ccc(-c3cn[nH]c3)s2)NS1(=O)=O [HBV-CSU-244-ISO-I],< 1000
17,"CSCCN1[C@H](C(=O)Nc2ccc(F)c(Cl)c2)C[C@H](c2nccs2)NS1(=O)=O [HBV-CSU-109-ISO-II, Cis-N-(3-Chloro-4-fluorophenyl)-2-(2-(methylthio)ethyl)-5-(thiazol-2-yl)-1,2,6-thiadiazinane-3-carboxamide 1,1-dioxide]",< 1000
18,"Cc1cccc(NC(=O)C2CC(c3cccs3)NS(=O)(=O)N2C)c1 (racemic) [HBV-CSU-013, Cis-2-Methyl-5-(thiophen-2-yl)-N-(m-tolyl)-1,2,6-thiadiazinane-3-carboxamide 1,1-dioxide]",< 1000
19,"Cc1ncc([C@H]2C[C@@H](C(=O)Nc3ccc(F)c(Cl)c3)N(C)S(=O)(=O)N2)s1 [HBV-CSU-224-ISO-I, Cis-N-(3-Chloro-4-fluorophenyl)-2-methyl-5-(2-methylthiazol-5-yl)-1,2,6-thiadiazinane-3-carboxamide 1,1-dioxide]",< 1000
20,"[2H]C([2H])([2H])N1C(C(=O)Nc2ccc(F)c(Cl)c2)CC(c2ccc(Br)s2)NS1(=O)=O (racemic) [HBV-CSU-370, Cis-5-(5-bromothiophen-2-yl)-N-(3-chloro-4-fluorophenyl)-2-(methyl-d3)-1,2,6-thiadiazinane-3-carboxamide 1,1-dioxide]",< 1000
21,"CN1[C@@H](C(=O)Nc2ccc(F)c(Cl)c2)C[C@@H](c2ccc(-c3ncn(C)n3)s2)NS1(=O)=O [HBV-CSU-322-ISO-II, Cis-N-(3-Chloro-4-fluorophenyl)-2-methyl-5-(5-(1-methyl-1H-1,2,4-triazol-3-yl)thiophen-2-yl)-1,2,6-thiadiazinane-3-carboxamide 1,1-dioxide]",> 5000
